Data set [1] addresses hERG potassium ion channel (Homo sapiens, UniProt Q12809). The data set can be described thus: Blockade of the hERG potassium ion channel (whole cell patch clamp). The data set is classed as cell-based. As to conditions: HEK293 cells stably overexpressing hERG, pH 7.4, tail current, read-out: The percentage of the inhibition to the hERG current at the solubility of 3 μM (n = 2). The method, then:
The effect of the compound of the present invention on possible arrhythmias was assessed by determining the blockade of the hERG potassium ion channel.
The experiment method was summarized as follows: • Extracellular fluid: 140 mM NaCl, 3.5 mM KCl, 1 mM MgCl2, 2 mM CaCl2, 10 mM D-glucose, 10 mM HEPES, 1.25 mM NaH2PO4, pH=7.4. • Electrode internal solution: 20 mM KCl, 115 mM K-aspartate, 1 mM MgCl2, 5 mM EGTA, 10 mM HEPES, 2 mM Na2-ATP, pH=7.2. • Compound solution: the compound to be tested was dissolved in DMSO and prepared into a stock solution having a concentration of 10 mM, then diluted into the concentration of 3 mM with DMSO, and then diluted into a solution having a concentration of 3 μM with the extracellular solution for subsequent use. • Cell culture: the HEK293 cell line with the stable hERG potassium channel overexpression (Creacell, Cat. No. A-0320) was cultured in a DMEM medium (Gibco, Cat. No. 11995-065) containing […] (Gibco, Cat. No. 1428478) and 0.8 mg/mL G418 (Amresco, Cat. No. E859-5G) at the culture temperature of 37° C. under the carbon dioxide concentration of […]. The spent medium was removed and the cells were washed once with PBS (Gibco, Cat. No. 1009-141). Then 1 mL TrypLE™ Express solution (Gibco, Cat. No. 12604021) was added and the cells were incubated at 37° C. […]. When the cells were detached from the bottom of the dish, 5 mL of complete medium preheated at 37° C. was added. The cell suspension was transferred to a sterile centrifuge tube and centrifuged at 1000 rpm for 5 minutes before cell collection. Cells were inoculated in 6 cm cell culture dishes at the cell inoculation volume of 2.5*10^5 per dish (final volume: 5 mL). Before the patch clamp detection experiment, 3*10^3 cells were plated on the cover slips, cultured in 24-well plates (final volume: 500 μL), and detected 18 hours later. • Voltage stimulation protocol by recording the whole-cell hERG potassium current with the whole cell patch clamp: after forming a whole-cell seal, the cell membrane voltage was clamped at −80 mV. The clamping voltage was depolarized from −80 mV to −50 mV and maintained for 0.5 seconds (as leakage current detection), then stepped to 30 mV and maintained for 2.5 seconds, then quickly returned to −50 mV and maintained for 4 seconds to excite the hERG channel tail current (Peak tail current), the hERG potassium current was recorded every other 10 seconds. Experiment data were collected with EPC-10 amplifier (HEKA) and stored in PatchMaster (HEKA v2x73) software. • Determination: A capillary glass tube (Sutter Instruments) was drawn into a recording electrode with a microelectrode drawing instrument (Sutter Instruments). The cell-loaded cover slip was removed from the 24-well plate placed in the incubator and then placed under an inverted microscope. […] In the whole-cell recording mode, the slow capacitance compensation was performed and the membrane capacitance and the series resistance were recorded, during which the leakage compensation was not applied. After the hERG tail current recorded with the whole cell was stabilized for 3-5 minutes, 8 mL of the compound-free extracellular fluid (blank control) and 8 mL of 3 μM solution of the compound to be tested were sequentially flowed through the recording bath with the gravity perfusion to act on the cells for 5 minutes (or to the current stabilization). The current detected for each cell in the compound-free extracellular fluid was served as its own control. […]

The subject of another data set is TNFα. The data set can be described thus: Inhibition of TNFα secretion in LPS-stimulated hPBMC (ELISA). The data set is classed as cell-based. Conditions: Homo sapiens, overnight, read-out: IC50 (nM) for the inhibition of the TNFa secretion. As to the method: (§1) The immunomodulatory function of the compound of the present invention was evaluated by detecting its effect on the secretion amount of TNFα and IL-2 in cells from the human peripheral blood mononuclear cells (hPBMC) by the enzyme linked immunosorbent assay (ELISA) method.
(§2) The peripheral blood of healthy volunteers was collected by using EDTA anticoagulant tubes, and diluted with phosphate buffered saline (PBS) containing 2% fetal bovine serum (Gibco, Cat. No. 10099-141) in an equal volume ratio. 30 mL of the resulting diluted sample was transferred into a Sepmate-50 centrifuge tube (Stemcell, Cat. No. 86450) to which 15 mL of a density-gradient centrifugation liquid (Sigma, Cat. No. 10771) had been added in advance, and centrifuged at room temperature at 1200×g for 10 minutes. The liquid containing PBMC in the upper layer was transferred to a new 50-mL centrifuge tube, and centrifuged at room temperature at 300×g for 8 minutes. The supernatant was discarded, and the resulting PBMC was resuspended to 5×10^6/mL by using RPMI 1640 medium (Gibco, Cat. No. 72400-047). 80 μL of the resulting suspension was added to each well in a 96-well plate.
(§3) Each concentration was further diluted 50-fold with RPMI 1640 medium. 10 μL of each compound solution was added into the cells in the above 96-well plate. The 96-well plate was placed in an incubator, and the cells were cultured at 37° C. and 5% CO2 for 1 hour. 10 μL of LPS (Sigma, Cat. No. L-2880) with a concentration of 100 ng/mL was added, and the cells were continuously cultured in the incubator at 37° C. and 5% CO2 overnight. Supernatants were collected for the detection of TNFα.
(§4) TNFα and IL-2 were detected respectively according to each instruction of the ELISA kits (R&D, Cat. No. DY210 and DY202, respectively) to obtain the OD450 values for each well. The group containing 0.2% DMSO medium was used as 0% inhibition or stimulation. The XLfit software was used to plot the compound inhibition or stimulation curve and calculate the corresponding IC50 or EC50.
(In general: In an ELISA, binding on a coated surface is turned into a signal by an enzyme label.)

Data set [2] deals with NCI-H929 human myeloma cells. As to the kind of experiment: Inhibition of the proliferation of NCI-H929 cells (luminescent cell viability, CTG). Type of data set: cell-based. Conditions: Homo sapiens, NCI-H929, 144 h, 6 days, CellTiter-Glo. As to the method: The effect of the compounds of the present invention on the proliferation of NCI-H929 human myeloma cells was evaluated by using a luminescent cell viability test experiment.
The compound was dissolved and diluted to 5 mM in DMSO, and then serially diluted 4-fold in DMSO to a minimum concentration of 0.31 μM. Each concentration was further diluted 50-fold with RPMI 1640 medium (Thermo Fisher, Cat. No. 72400-047). If the IC50 value of the compound was relatively low, the initial concentration of the compound could be lowered.
NCI-H929 cells (Nanjing Cobioer, Cat. No. CBP60243) were cultured in RPMI 1640 complete medium [containing 10% FBS (GIBCO, Cat. No. 10099-141) and 100 units/mL penicillin-streptomycin (Thermo Fisher, Cat. No. 15140122)]. Cells (15000 cells/mL) were plated in 90 μL of the complete medium in a 96-well plate and cultured overnight, and then 10 μL of the compound solution was added into each well. The cells were cultured in an incubator at 37° C. and 5% CO2 for 6 days. Then the cell culture plate was taken out and balanced to room temperature according to the instruction of the CellTilter-Glo (CTG) kit (Promega, Cat. No. G7572). 50 μL CTG reagent was added for complete lysis, the plate was placed at room temperature for 10 minutes, and the luminescence signal was read with a microplate reader (EnVision, Perkin Elmer). The group containing 0.2% DMSO medium was used as 0% inhibition. The XLfit software was used to plot the compound inhibition curve and calculate the inhibitory IC50 value.
A general note: Cellular ATP, detected with luciferase, serves as a proxy for viable cell number.

Data set [3] in a line: In vivo pharmacokinetic experiment in rats. As to conditions: male Sprague-Dawley rats, n = 3. The method, then:
The compound to be tested was dissolved in 5% DMA+20% Solutol+75% Saline vehicle to prepare a 0.5 mg/mL administration solution.
2 mL/kg of the administration solution was administered through the intravenous injection (IV) at a dose of 1 mg/kg to three fed male Sprague-Dawley rats, respectively. Blood samples were collected at 0.083, 0.25, 0.5, 1, 2, 4, 8 and 24 hours after administration. 10 mL/kg of the administration solution was administered by gavage (PO) at a dose of 5 mg/kg to other three fed male Sprague-Dawley rats, respectively. Blood samples were collected at 0.25, 0.5, 1, 2, 4, 8 and 24 hours after administration.
The concentration of the compound to be tested in plasma was obtained with the LC-MS/MS quantitative analysis with an API-4500 mass spectrometer, and the limit of quantitation (LOQ) for the plasma was 1 ng/mL.

The test system of another data set is IL-2. The data set can be described thus: Stimulation of IL-2 secretion in anti-CD3-stimulated hPBMC (ELISA). Type of data set: cell-based, human. As to conditions: Homo sapiens, anti-CD3 antibody, 72 hours. The method, then: as §1, §2, §3
The above-mentioned 96-well plate can also be placed in an incubator, and the cells were cultured at 37° C. and 5% CO2 for 1 hour. 10 μL of anti-CD3 antibody (Thermo Fisher, Cat. No. 14-0037-82) with a concentration of 500 ng/mL was added, and the cells were continuously cultured in the incubator at 37° C. and 5% CO2 for 72 hours. Supernatants were collected for the detection of IL-2.
as §4

Each structure is given as a SMILES string.

Sequence of hERG potassium ion channel (Q12809 whole entry): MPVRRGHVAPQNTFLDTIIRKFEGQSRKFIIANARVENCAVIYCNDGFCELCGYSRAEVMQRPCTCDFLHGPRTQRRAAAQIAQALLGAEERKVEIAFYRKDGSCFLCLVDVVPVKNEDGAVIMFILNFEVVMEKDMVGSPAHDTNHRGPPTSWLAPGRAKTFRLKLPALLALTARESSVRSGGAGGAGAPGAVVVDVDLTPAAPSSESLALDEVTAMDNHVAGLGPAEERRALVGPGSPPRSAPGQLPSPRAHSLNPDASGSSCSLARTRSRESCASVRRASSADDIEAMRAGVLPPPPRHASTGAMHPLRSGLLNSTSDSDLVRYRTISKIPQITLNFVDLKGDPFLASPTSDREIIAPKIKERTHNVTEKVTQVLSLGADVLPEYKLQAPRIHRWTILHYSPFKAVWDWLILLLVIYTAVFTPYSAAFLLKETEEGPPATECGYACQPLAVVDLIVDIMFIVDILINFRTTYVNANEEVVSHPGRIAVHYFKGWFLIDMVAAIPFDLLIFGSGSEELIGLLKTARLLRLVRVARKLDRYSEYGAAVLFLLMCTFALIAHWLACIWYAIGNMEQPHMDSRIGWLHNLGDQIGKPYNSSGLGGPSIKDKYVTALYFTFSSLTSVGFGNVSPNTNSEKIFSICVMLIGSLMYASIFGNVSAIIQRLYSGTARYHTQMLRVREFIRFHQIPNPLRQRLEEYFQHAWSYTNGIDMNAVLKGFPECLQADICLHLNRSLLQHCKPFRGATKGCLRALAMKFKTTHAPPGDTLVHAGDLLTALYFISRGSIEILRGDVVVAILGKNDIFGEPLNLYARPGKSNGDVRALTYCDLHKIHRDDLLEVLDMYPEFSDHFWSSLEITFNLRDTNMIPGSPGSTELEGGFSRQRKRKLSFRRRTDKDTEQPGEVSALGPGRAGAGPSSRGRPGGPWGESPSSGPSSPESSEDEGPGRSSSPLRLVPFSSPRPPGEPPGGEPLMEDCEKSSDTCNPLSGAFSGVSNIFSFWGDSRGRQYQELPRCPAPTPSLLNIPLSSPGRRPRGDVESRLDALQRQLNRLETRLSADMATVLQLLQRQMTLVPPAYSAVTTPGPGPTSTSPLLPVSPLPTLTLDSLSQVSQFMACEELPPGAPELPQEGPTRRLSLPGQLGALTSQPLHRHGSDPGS

For orientation: inhibition means the change of the read-out against control, counted positive when it falls. As for `N#Cc1ccc(N2CCN(Cc3ccc(COc4cccc5c4CN([C@H]4CCC(=O)NC4=O)C5=O)cc3)CC2)c(F)c1` [CC-92480, reference compound], the inhibition at 5 min, 3 µM in data set [1] amounted to 76%.

Broadly, the IC50 is the concentration that inhibits the measured activity by half. What is called clearance is the rate of elimination divided by the concentration. In general, AUC(0-t) refers to exposure summed from dosing to a finite time, without extrapolation to infinity. One may read the Cmax as the maximum level reached in the sampled fluid or tissue. By EC50 is commonly meant the concentration needed to bring the measured effect to its halfway point. Lower therefore signals a more potent agent. Turning to `C[C@@H](c1ccc(COc2cccc3c2CN([C@H]2CCC(=O)NC2=O)C3=O)cc1)N1CCN(c2ccc(C#N)cc2F)CC1` [Compound 7, 4-(4-((S)-1-(4-(((2-((S)-2,6-dioxopiperidin-3-yl)-1-oxoisoindolin-4-yl)oxy)methyl)phenyl)-ethyl)piperazin-1-yl)-3-fluorobenzonitrile], the IC50 in the data set on TNFα was 2.8 nM. Also, the IC50 in data set [2] is 0.2 nM. In addition, in data set [3] (PO 5 mpk vs IV 1 mpk), the F was 19%. The molecule further gave a clearance in data set [3] (rat, plasma, 1 mg/kg, IV 1 mpk) of 13 mL/min/kg. For the same molecule, the Vd in data set [3] (rat, plasma, 1 mg/kg, IV 1 mpk, read-out: VSS) worked out at 2.4 L/kg. Besides, in data set [3] (rat, plasma, 5 mg/kg, PO 5 mpk), the AUC(0-t) came to 1200 ng·h/mL and the Cmax was found to be 121 ng/mL. In the data set on IL-2, this molecule returned an EC50 of 3.2 nM.

These data come from patent publication US20230271933A1, “HETEROCYCLIC IMMUNOMODULATOR” (Beijing Innocare Pharma Tech Co., Ltd., priority 2020, published 2023).
